Literature values as cited in patent US11918665B2, “Method for dyeing keratinous material, comprising the use of an organosilicon compound, a colored effect pigment and a sealing reagent I” (Henkel AG & Co. KGaA, priority 2019, dated 2024).

Conditions: 25° C.

solubility in water (in words)	SMILES	solubility in water
–	O=C([O-])c1c(Cl)c(Cl)c(Cl)c(Cl)c1-c1c2c(Br)cc(=O)c(Br)c-2oc2c(Br)c(O)cc(Br)c12.O=C([O-])c1c(Cl)c(Cl)c(Cl)c(Cl)c1-c1c2c(Br)cc(=O)c(Br)c-2oc2c(Br)c(O)cc(Br)c12.[Na+].[Na+] [Acid Red 92, disodium salt of 3,4,5,6-tetrachloro-2-(1,4,5,8-tetrabromo-6-hydroxy-3-oxoxanthen-9-yl)benzoic acid]	greater than 10 g/L
–	O=S(=O)([O-])c1ccc(N=Nc2c(O)ccc3ccccc23)cc1.[Na+] [Acid Orange 7, sodium salt of 4-[(2-hydroxy-1-naphthyl)azo]benzene sulphonate]	more than 7 g/L
–	Nc1cc(S(=O)(=O)[O-])cc2cc(S(=O)(=O)[O-])c(N=Nc3ccccc3)c(O)c12.[Na+].[Na+] [Acid Red 33, disodium salt of 5-amino-4-hydroxy-3-(phenylazo)-naphthalene-2,7-disulphonate]	2500 µg/mL
highly soluble in water	O=C([O-])C1=NN(c2ccc(S(=O)(=O)[O-])cc2)C(=O)C1N=Nc1ccc(S(=O)(=O)[O-])cc1.[Na+].[Na+].[Na+] (stereo not shown) [Acid Yellow 23, trisodium salt of 4,5-dihydro-5-oxo-1-(4-sulfophenyl)-4-((4-sulfophenyl)azo)-1H-pyrazole-3-carboxylic acid]	–
